The values below come from patent US20220273659A1, “HETEROCYCLIC COMPOUNDS AS KINASE INHIBITORS” (NUVATION BIO INC., priority 2019, published 2022).

One test addresses T1, CDK9 (cyclin K) (Homo sapiens, UniProt P50750).
T1 construct: purchased Invitrogen Life Technologies (assay service)
The experiment in a line: LanthaScreen Eu Kinase Binding Assay. As for the experimental part:
0.16 μL of 100×test compound in 100% DMSO (at specific solutions) were mixed with 3.84 μL of Kinase Buffer (50 mM HEPES pH 7.5, 0.01% BRIJ-35, 10 mM MgCl2, 1 mM EGTA), 8.0 μL of 2× Kinase (5 nM)/Antibody (Eu-anti-His, 2 nM) Mixture and 4.0 μL of 4×Tracer (Tracer 236, 100 nM). The plates were shaken for 30 seconds, and incubated for 60 minutes at room temperature. The plates were read on fluorescence plate reader with Dual emission at 615 nm and 665 nm.
(§1) The following equations were used for LanthaScreen Eu Kinase Binding Assay Data Analysis. Percent inhibition (100-% activity) was fitted to the “four-parameter logistic model” in XLfit for determination of IC50 values.
A general note: TR-FRET usually uses a lanthanide donor and a delayed reading to cut background.

A further test has as its target T2, CDK2 (cyclin E1) (Homo sapiens, UniProt P24941).
T2 construct: purchased Invitrogen Life Technologies (assay service)
The experiment in a line: LanthaScreen Eu Kinase Binding Assay. The settings on record: read-out: CDK2/E IC50. As for the experimental part:
0.16 μL of 100×test compound in 100% DMSO (at specific solutions) were mixed with 3.84 μL of Kinase Buffer (50 mM HEPES pH 7.5, 0.01% BRIJ-35, 10 mM MgCl2, 1 mM EGTA), 8.0 μL of 2× Kinase (2.5 nM)/Antibody (Eu-anti-GST, 2 nM) Mixture and 4.0 μL of 4×Tracer (Tracer 236, 100 nM). The plates were shaken for 30 seconds, and incubated for 60 minutes at room temperature. The plates were read on fluorescence plate reader with Dual emission at 615 nm and 665 nm.
as §1

The next test addresses T3, CDK12 (cyclin K) (Homo sapiens, UniProt Q9NYV4).
T3 construct: purchased Eurofins Pharma Discovery (assay service)
The experiment in a line: KinaseProfiler radiometric protein kinase assay. It counts as biochemical. As for the experimental part: IC50 values of compounds against CDK12 (cyclin K) were determined by KinaseProfiler™ radiometric protein kinase assay at Eurofins Pharma Discovery (Dundee, UK). Compounds were prepared to 50× final assay concentration in 100% DMSO. This working stock of the compound was added to the assay well as the first component in each reaction. CDK12/Cyclin K was diluted in buffer (20 mM TRIS, 0.2 mM EDTA, 0.1%-mercaptoethanol, 0.01% Brij-35, 5% glycerol, mg/ml BSA) prior to addition to the reaction mix. CDK12/Cyclin K was incubated with 20 mM Tris/HCl pH 8.5, 0.2 mM EDTA, 300 μM SRSRSRSRSRSRSR, 10 mM Magnesium acetate and [γ-^33P-ATP] (specific activity and concentration as required). The reaction was initiated by the addition of the Mg/ATP mix. After incubation for 120 minutes at room temperature, the reaction was stopped by the addition of phosphoric acid to a concentration of 0.5%. 10 μl of the stopped reaction was spotted onto a P30 filtermat and washed four times for 4 minutes in 0.425% phosphoric acid and once in methanol prior to drying and scintillation counting. Results were calculated as a percentage of the mean kinase activity in positive control samples. Data were fitted in XLfit for determination of IC50 values.

T3 sequence (Q9NYV4 whole entry): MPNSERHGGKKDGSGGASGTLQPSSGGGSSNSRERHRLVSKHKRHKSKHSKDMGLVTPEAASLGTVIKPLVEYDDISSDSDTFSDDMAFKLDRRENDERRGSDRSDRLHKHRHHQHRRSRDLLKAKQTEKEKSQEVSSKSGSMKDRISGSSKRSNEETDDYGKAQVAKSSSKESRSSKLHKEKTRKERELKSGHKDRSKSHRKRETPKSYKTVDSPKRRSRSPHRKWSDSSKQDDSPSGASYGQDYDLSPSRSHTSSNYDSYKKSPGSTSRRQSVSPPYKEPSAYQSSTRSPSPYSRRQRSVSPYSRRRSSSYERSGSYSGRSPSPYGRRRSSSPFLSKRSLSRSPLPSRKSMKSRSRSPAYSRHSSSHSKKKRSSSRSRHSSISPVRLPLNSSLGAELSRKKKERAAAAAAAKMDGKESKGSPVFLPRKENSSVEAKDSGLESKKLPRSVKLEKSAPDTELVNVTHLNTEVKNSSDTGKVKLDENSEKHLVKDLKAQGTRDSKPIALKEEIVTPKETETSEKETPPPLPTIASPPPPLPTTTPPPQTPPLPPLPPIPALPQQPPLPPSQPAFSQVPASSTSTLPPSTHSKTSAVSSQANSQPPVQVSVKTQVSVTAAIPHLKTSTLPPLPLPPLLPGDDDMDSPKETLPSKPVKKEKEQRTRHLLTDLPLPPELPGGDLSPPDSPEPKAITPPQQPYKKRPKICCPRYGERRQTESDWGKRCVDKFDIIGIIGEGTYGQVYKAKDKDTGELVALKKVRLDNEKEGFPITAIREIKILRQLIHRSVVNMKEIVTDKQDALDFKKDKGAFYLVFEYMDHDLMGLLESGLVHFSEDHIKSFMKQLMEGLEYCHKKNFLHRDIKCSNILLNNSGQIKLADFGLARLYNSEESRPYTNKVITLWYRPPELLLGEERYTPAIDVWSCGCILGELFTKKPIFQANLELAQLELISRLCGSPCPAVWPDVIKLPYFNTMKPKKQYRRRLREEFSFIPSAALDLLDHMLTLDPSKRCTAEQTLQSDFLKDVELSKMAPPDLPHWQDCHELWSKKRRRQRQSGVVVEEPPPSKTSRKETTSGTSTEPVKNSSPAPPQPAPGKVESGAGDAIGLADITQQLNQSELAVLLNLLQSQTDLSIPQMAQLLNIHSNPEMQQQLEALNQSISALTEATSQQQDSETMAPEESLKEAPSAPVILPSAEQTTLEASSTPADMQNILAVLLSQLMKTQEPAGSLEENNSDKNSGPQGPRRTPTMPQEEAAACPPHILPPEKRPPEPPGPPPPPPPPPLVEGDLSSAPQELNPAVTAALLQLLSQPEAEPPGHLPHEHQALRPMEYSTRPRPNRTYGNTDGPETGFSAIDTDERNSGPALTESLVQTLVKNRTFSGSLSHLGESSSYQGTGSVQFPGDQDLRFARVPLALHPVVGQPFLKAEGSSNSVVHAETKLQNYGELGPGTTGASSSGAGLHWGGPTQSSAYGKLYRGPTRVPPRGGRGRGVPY
T3 sequence (O75909 whole entry partner): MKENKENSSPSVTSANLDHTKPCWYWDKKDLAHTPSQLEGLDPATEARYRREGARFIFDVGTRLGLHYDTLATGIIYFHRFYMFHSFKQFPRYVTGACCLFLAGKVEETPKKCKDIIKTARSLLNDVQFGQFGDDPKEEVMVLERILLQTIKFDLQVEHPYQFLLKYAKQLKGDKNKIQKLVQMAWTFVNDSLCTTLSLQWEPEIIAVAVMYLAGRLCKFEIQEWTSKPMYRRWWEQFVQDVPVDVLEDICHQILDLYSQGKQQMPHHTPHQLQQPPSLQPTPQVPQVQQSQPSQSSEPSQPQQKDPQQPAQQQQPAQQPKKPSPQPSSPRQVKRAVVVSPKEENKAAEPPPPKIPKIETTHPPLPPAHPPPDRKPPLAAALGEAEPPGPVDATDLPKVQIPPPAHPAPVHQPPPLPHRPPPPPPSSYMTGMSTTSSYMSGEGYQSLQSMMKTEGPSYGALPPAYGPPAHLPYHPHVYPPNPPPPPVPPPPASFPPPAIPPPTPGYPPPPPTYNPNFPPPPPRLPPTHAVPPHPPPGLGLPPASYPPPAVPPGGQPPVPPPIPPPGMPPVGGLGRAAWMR
T1 sequence (P50750 whole entry): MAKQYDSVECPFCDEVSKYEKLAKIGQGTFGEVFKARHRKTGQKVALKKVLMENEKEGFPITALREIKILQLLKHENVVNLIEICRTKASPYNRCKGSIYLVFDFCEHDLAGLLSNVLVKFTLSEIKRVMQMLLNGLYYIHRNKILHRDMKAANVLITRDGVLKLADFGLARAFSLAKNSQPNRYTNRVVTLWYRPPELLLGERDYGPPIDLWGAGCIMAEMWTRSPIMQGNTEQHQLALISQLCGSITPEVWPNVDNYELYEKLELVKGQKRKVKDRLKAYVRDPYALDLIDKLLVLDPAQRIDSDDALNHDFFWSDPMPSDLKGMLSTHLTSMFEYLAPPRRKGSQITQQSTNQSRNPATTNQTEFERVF
T1 sequence (O75909 whole entry partner): as the sequence (O75909 whole entry partner) above

With `N#Cc1cc2cnc(Nc3ccc4c(c3)CCNC4)nc2n(C2CCCC2)c1=O` [Compound No. 31, 8-cyclopentyl-7-oxo-2-((1,2,3,4-tetrahydroisoquinolin-6-yl)amino)-7,8-dihydropyrido[2,3-d]pyrimidine-6-carbonitrile], the figures for the IC50 on CDK9 (cyclin K), at CDK2 (cyclin E1) and against CDK12 (cyclin K) were 0.02 µM, 0.074 µM and over 10 µM, respectively.
